Laboratory results reported in patent US20130011333A1, “Methods and Compositions for Nanoparticle-Mediated Cancer Cell-Targeted Delivery” (Board of Regents, The University of Texas System, priority 2010, published 2013).

What was measured:
[1] = test system: MCF-10A cells; assay: Western analysis of p53 pathway; type: cell-based, human; conditions: 4Gy, 6 h post-IR
Method: (§1) A. Cells as in FIG. 6 were subject to Western analysis using the indicated antibodies. P53/p73OD expressing MDA-MB-231 or MCF-10A cells were either mock or irradiated with 4Gy. The cells were either harvested at 6 h post-IR for Western analysis (B) or at 24 h for FACS analysis (C). The results are mean±SE from three independent experiments.
(§2) To understand potential mechanisms underlying the differential sensitivity of cancer cells and non-transformed cells to p53/p73OD expression, p53 activity was examined further. […] The result is in line with the notion that cancer cells, but not normal cells, harbor strong intrinsic p53-activating signals. The low activity of p53/p73OD in MCF-10A cells led to the question of whether the chimera could be activated by exogenous stimuli such as radiation.

[2] = test system: MCF-10A cells; assay: Colony formation assay; type: cell-based, human; conditions: expression level that markedly inhibits MDA-MB-231 growth
Method: FIG. 6. MCF-10A cells are less sensitive to a moderate level of p53/p73OD expression. MCF-10A cells with MDA-MB-231 cells as controls were transfected with the indicated vectors (0.5 μg) and subjected to colony formation assay as in FIG. 5. Western blot was performed in parallel to determine the level of p53/p73OD expression.
As a result, the response of normal cells to a moderate level of p53/p73OD expression is likely to differ from that of cancer cells. This was tested by comparing MDA-MB-231 cells and MCF-10A cells (a non-transformed human breast epithelial cell line), using a similar colony formation assay.

[3] = molecular target: p53 (Homo sapiens, UniProt P04637); conditions: reference [28]; cited from earlier work
Sequence of p53 (P04637 whole entry): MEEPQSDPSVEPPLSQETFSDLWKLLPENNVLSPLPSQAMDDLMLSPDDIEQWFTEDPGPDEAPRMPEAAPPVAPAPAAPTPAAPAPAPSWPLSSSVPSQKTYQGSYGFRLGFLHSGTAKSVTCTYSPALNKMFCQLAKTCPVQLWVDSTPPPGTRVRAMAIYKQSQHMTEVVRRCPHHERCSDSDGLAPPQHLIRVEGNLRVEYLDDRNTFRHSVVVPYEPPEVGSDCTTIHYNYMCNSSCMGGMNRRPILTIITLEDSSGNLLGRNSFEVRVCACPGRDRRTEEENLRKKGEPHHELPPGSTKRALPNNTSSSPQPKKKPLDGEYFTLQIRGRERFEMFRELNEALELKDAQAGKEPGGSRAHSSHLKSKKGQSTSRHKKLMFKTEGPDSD

[4] = test system: MDA-MB-231 cells; assay: FACS (flow cytometry) analysis after irradiation; type: cell-based, human; conditions: MDA-MB-231 cells expressing p53/p73OD, 4Gy, 24 h
Method: as §1, §2

[5] = test system: MCF-10A cells; assay: FACS (flow cytometry) analysis after irradiation; type: cell-based, human; conditions: MCF-10A cells expressing p53/p73OD, 4Gy, 24 h
Method: as §1, §2

[6] = test system: MDA-MB-231 cells stably expressing Pg13-GFP; assay: Pg13-GFP reporter of p53 activation; type: cell-based, human; conditions: delivered with GLU-PEG-PEI, 0.2 μg DNA/60-mm dish, 24 h
Method: The cells were fixed 24 h later using 2% formalin and stained with DAPI dye. The top panels show the GFP expression. The bottom panels show cell nuclei detected by DAPI staining.
To facilitate the detection of p53 activation in situ, a Pg13-GFP system was developed in which 13 repeats of a canonical p53 responsive element were cloned to drive the expression of GFP protein. An absolute dependency of the GFP expression on p53 was verified with p53-null H1299 cells. […] The cells were fixed 24 h later.

[7] = test system: MDA-MB-231 cells; assay: Western analysis of p53 pathway; type: cell-based, human
Method: After selection with puromycin, the cells were subjected to colony formation assay. The data are means±SE from three separate experiments (A). Western analysis was performed with cells that were harvested at 48 h pos-selection and probed using the indicated antibodies (B).
as §1
The present invention utilizes a p53/p73 chimera to circumvent this OD-mediated inactivation by mutant p53. A series of p53/p73 chimeric proteins were generated by swapping corresponding domains of p53 and p73 [28]. […] A crystal structure study has confirmed this observation. […] This is of particular significance considering the dominant-negative and gain-of-function activities of mutant p53 that are primarily responsible for the oncogenic function.
as §2

[8] = test system: MDA-MB-231 cells; assay: Colony formation assay; type: cell-based, human; conditions: MDA-MB-231 cells expressing high level of mutant p53, transfected vector
[9] = molecular target: T1, p73 (Homo sapiens, UniProt O15350); conditions: reference [28]; cited from earlier work
T1 sequence (O15350 1-499 isoform O15350-2): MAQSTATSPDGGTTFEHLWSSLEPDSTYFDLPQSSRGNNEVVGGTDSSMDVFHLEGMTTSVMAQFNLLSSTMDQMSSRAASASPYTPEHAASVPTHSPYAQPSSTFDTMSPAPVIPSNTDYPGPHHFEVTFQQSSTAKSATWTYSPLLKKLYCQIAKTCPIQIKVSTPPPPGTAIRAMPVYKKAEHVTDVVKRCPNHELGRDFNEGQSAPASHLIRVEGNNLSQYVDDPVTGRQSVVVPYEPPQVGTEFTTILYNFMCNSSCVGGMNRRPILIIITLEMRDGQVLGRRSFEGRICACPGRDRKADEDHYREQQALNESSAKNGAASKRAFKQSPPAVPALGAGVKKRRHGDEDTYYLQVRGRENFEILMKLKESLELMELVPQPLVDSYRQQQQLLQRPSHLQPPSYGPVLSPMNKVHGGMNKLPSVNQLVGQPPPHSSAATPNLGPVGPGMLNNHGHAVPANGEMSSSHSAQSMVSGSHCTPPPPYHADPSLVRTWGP

p53/p73OD: human p53 protein in which amino acids 318 to 364 are replaced with amino acids 346-390 of p73 (the oligomerization domain)
phosphorylation after IR [1]: markedly induced | cell growth (colony formation) [2]: did not significantly impact the growth | binding to p53 [3]: does not bind | G1 cell cycle arrest after IR [4]: little G1 cell cycle arrest | sub-G1, or apoptotic population after IR [4]: marked increase | G1 cell cycle arrest after IR [5]: significant G1 cell cycle arrest | p53 transcription activity (GFP expression) [6]: increase of p53 transcription activity | PUMA, MDM2 and p21 expression [7]: robust induction | phosphorylation after IR ([7]; 4Gy, 6 h post-IR): markedly induced | mutant p53 protein level ([7]; Western, 48 h post-selection): significant decrease | phosphorylation (anti-Sp15p53 Western) ([7]; no irradiation): phosphorylated | cell growth (colony formation) [8]: effectively inhibited cell growth | association with p73 [9]: associates
